Data reported in patent US20100173943A1, “INSECTICIDAL COMPOSITIONS WITH IMPROVED ACTION” (BAYER CROPSCIENCE AG, priority 2007, published 2010).

Legend:
[1] = test system: green peach aphid (Myzus persicae); test: Myzus persicae test (MYZUPE); format: in vivo; conditions: pepper plants sprayed, 6 days; for pest or weed control at 4 ppm / pest or weed control at 20 ppm / pest or weed control at 0.8 ppm / pest or weed control at 100 ppm: Myzus persicae, 144 h, read-out: Kill in % after 6 days a.i.; for pest or weed control at 4 ppm: 4 ppm a.i. alone; for pest or weed control at 20 ppm: 20 ppm a.i. alone; for pest or weed control at 0.8 ppm: 0.8 ppm a.i. alone; for pest or weed control at 100 ppm: 100 ppm a.i. alone
Protocol: Myzus persicae Test (MYZUPE)
(§1) Solvent: 7 parts by weight of dimethylformamide
(§2) Emulsifier: 2 parts by weight of alkylaryl polyglycol ether
(§3) To prepare an appropriate active ingredient formulation, 1 part by weight of active ingredient is mixed with the given amounts of solvent and emulsifier, and the concentrate is diluted with emulsifier-containing water to the desired concentration. In the case that addition of ammonium salts, penetrants, or ammonium salts and penetrants is required, they are pippetted in each case into the finished preparation solution after dilution in a concentration of 1000 ppm each.
Pepper plants (Capsicum annuum) highly infested by the green peach aphid (Myzus persicaei) are treated by spraying with the active ingredient formulation in the desired concentration.
After the desired time, the kill rate in % is determined. 100% means that all animals have been killed; 0% means that no animals have been killed.

[2] = test system: cotton aphid (Aphis gossypii); test: Aphis gossypii test (APHIGO spray treatment); format: in vivo; conditions: cotton leaves sprayed, 6 days; for pest or weed control at 0.8 ppm: 0.8 ppm a.i. alone; for pest or weed control at 4 ppm: 4 ppm a.i. alone; for pest or weed control at 20 ppm: 20 ppm a.i. alone
Protocol: Aphis gossypii Test (APHIGO Spray Treatment)
as §1, §2
as §3, with “a ready-to-use” for “an appropriate”, “specified” for “given”, “emulsifier” for “emulsifier,”, “pipetted” for “pippetted”
Cotton leaves (Gossypium hirsutum) highly infested by the cotton aphid (Aphis gossypii) are sprayed with an active ingredient formulation with the desired concentration.
After the desired period, the kill rate in % is determined. 100% means that all aphids have been killed; 0% means that no aphids have been killed.

[3] = 4 ppm a.i. + AMS and RME 1000 ppm each
[4] = 4 ppm a.i. + ammonium sulphate 1000 ppm
[5] = 4 ppm a.i. + rapeseed oil methyl ester 1000 ppm
[6] = 20 ppm a.i. + AMS and RME 1000 ppm each
[7] = 20 ppm a.i. + ammonium sulphate 1000 ppm
[8] = 20 ppm a.i. + rapeseed oil methyl ester 1000 ppm
[9] = 0.8 ppm a.i. + AMS and RME 1000 ppm each
[10] = 0.8 ppm a.i. + ammonium sulphate 1000 ppm
[11] = 0.8 ppm a.i. + rapeseed oil methyl ester 1000 ppm
[12] = Aphis gossypii, 144 h, read-out: Kill in % after 6 days a.i.
[13] = 100 ppm a.i. + AMS and RME 1000 ppm each
[14] = 100 ppm a.i. + ammonium sulphate 1000 ppm
[15] = 100 ppm a.i. + rapeseed oil methyl ester 1000 ppm

Row | SMILES | Kill in % after 6 days +AMS + RME [1, 3] | Kill in % after 6 days +AMS [1, 4] | Kill in % after 6 days +RME [1, 5] | Kill in % after 6 days +AMS + RME [1, 6] | Kill in % after 6 days +AMS [1, 7] | Kill in % after 6 days +RME [1, 8] | pest or weed control at 4 ppm [1] | pest or weed control at 20 ppm [1] | Kill in % after 6 days +AMS + RME [2, 9] | Kill in % after 6 days +AMS [2, 10] | Kill in % after 6 days +RME [2, 11] | Kill in % after 6 days +AMS + RME [2, 3] | Kill in % after 6 days +AMS [2, 4] | Kill in % after 6 days +RME [2, 5] | pest or weed control at 0.8 ppm [2, 12] | pest or weed control at 4 ppm [2, 12] | Kill in % after 6 days +AMS + RME [2, 6] | Kill in % after 6 days +AMS [2, 7] | Kill in % after 6 days +RME [2, 8] | pest or weed control at 20 ppm [2, 12] | other results
1 | O=C1C=C(N(Cc2ccc(F)nc2)C2CC2)CO1 [Compound I-22, 4-{cyclopropyl[(6-fluoropyrid-3-yl)methyl]amino}furan-2(5H)-one] | 80% | 0% | 70% | 90% | 80% | 85% | 5% | 65% | 45% | 20% | 30% | 65% | 70% | 55% | 25% | 60% | – | – | – | – | –
2 | C=CCN(Cc1ccc(Cl)nc1)C1=CC(=O)OC1 [Compound I-32, 4-{allyl[(6-chloropyrid-3-yl)methyl]amino}furan-2(5H)-one] | 80% | 60% | 70% | 100% | 100% | 98% | 0% | 15% | – | – | – | – | – | – | – | – | 100% | 100% | 100% | 0% | –
3 | O=C1C=C(N(Cc2ccc(Cl)nc2)C2CC2)CO1 [Compound I-31, 4-{[(6-chloropyrid-3-yl)methyl](cyclopropyl)amino}furan-2(5H)-one] | – | – | – | – | – | – | – | – | 80% | 65% | 80% | – | – | – | 50% | – | – | – | – | – | Kill in % after 6 days +AMS + RME [1, 9]: 95%; Kill in % after 6 days +AMS [1, 10]: 80%; Kill in % after 6 days +RME [1, 11]: 100%; pest or weed control at 0.8 ppm [1]: 50%; Kill in % after 6 days +AMS + RME ([2]; 0.16 ppm a.i. + AMS and RME 1000 ppm each): 60%; Kill in % after 6 days +AMS ([2]; 0.16 ppm a.i. + ammonium sulphate 1000 ppm): 30%; Kill in % after 6 days +RME ([2]; 0.16 ppm a.i. + rapeseed oil methyl ester 1000 ppm): 15%; pest or weed control at 0.16 ppm ([2]; Aphis gossypii, 144 h, 0.16 ppm a.i. alone, read-out: Kill in % after 6 days a.i.): 0%
4 | CCN(Cc1ccc(Cl)nc1)C1=CC(=O)CCC1 [Compound I-39, 3-{[(6-chloropyrid-3-yl)methyl](ethyl)amino}cyclohex-2-en-1-one] | – | – | – | 30% | 25% | 80% | – | 20% | – | – | – | – | – | – | – | – | – | – | – | – | Kill in % after 6 days +AMS + RME [1, 13]: 95%; Kill in % after 6 days +AMS [1, 14]: 90%; Kill in % after 6 days +RME [1, 15]: 95%; pest or weed control at 100 ppm [1]: 85%; Kill in % after 6 days +AMS + RME [2, 13]: 60%; Kill in % after 6 days +AMS [2, 14]: 45%; Kill in % after 6 days +RME [2, 15]: 60%; pest or weed control at 100 ppm ([2]; Aphis gossypii, 144 h, 100 ppm a.i. alone, read-out: Kill in % after 6 days a.i.): 45%
5 | O=C1C=C(N(Cc2ccc(Br)nc2)CC(F)F)CO1 [Compound I-2] | – | – | – | – | – | – | – | – | 15% | 98% | 90% | – | – | – | 15% | – | – | – | – | – | Kill in % after 6 days +AMS + RME [1, 9]: 30%; Kill in % after 6 days +AMS [1, 10]: 50%; Kill in % after 6 days +RME [1, 11]: 98%; pest or weed control at 0.8 ppm [1]: 0%
6 | O=C1C=C(N(Cc2ccc(C(F)(F)F)nc2)C2CC2)CO1 [Compound I-24, 4-(cyclopropyl {[6-(trifluoromethyl)pyrid-3-yl]methyl}amino)furan-2(5H)-one] | 75% | 20% | 85% | 98% | 90% | 95% | 15% | 75% | – | – | – | – | – | – | – | – | 90% | 85% | 85% | 50% | –
7 | CN(Cc1ccc(Cl)nc1)C1=C(F)C(=O)OC1 [Compound I-28, 4-{[(6-chloropyrid-3-yl)methyl](methyl)amino}-3-fluorofuran-2(5H)-one] | 95% | 15% | 90% | – | – | – | 50% | – | – | – | – | 80% | 60% | 75% | – | 50% | 95% | 90% | 95% | 55% | –
8 | O=C1C=C(N(CCF)Cc2cnc(Cl)s2)CO1 [Compound I-4, 4-{[(2-chloro-1,3-thiazol-5-yl)methyl](2-fluoroethyl)amino}furan-2(5H)-one] | 100% | 80% | 90% | – | – | – | 15% | – | – | – | – | 85% | 20% | 65% | – | 20% | – | – | – | – | –
9 | C#CCN(Cc1ccc(Cl)nc1)C1=CC(=O)OC1 [Compound I-33, 4-{[(6-chloropyrid-3-yl)methyl](prop-2-yn-1-yl)amino}furan-2(5H)-one] | – | – | – | – | – | – | – | – | – | – | – | 15% | 25% | 65% | – | 30% | – | – | – | – | Kill in % after 6 days +AMS + RME [1, 13]: 95%; Kill in % after 6 days +AMS [1, 14]: 45%; Kill in % after 6 days +RME [1, 15]: 95%; pest or weed control at 100 ppm [1]: 40%
10 | CN(Cc1cnc(Cl)c(F)c1)C1=CC(=O)OC1 [Compound I-8, 4-{[(6-chloro-5-fluoropyrid-3-yl)methyl](methyl)amino}furan-2(5H)-one] | – | – | – | – | – | – | – | – | 75% | 30% | 60% | – | – | – | 20% | – | – | – | – | – | Kill in % after 6 days +AMS + RME [1, 9]: 95%; Kill in % after 6 days +AMS [1, 10]: 50%; Kill in % after 6 days +RME [1, 11]: 95%; pest or weed control at 0.8 ppm [1]: 40%
11 | CC1OC(=O)C=C1N(C)Cc1ccc(Cl)nc1 (stereo not shown) [Compound I-25, 4-{[(6-chloropyrid-3-yl)methyl](methyl)amino}-5-methylfuran-2(5H)-one] | 55% | 50% | 80% | – | – | – | 0% | – | – | – | – | 100% | 60% | 75% | – | 65% | – | – | – | – | –
12 | CCN(Cc1ccc(Cl)nc1)C1=CC(=O)OC1 [Compound I-30, 4-{[(6-chloropyrid-3-yl)methyl](ethyl)amino}furan-2(5H)-one] | – | – | – | – | – | – | – | – | – | – | – | – | – | – | – | – | 95% | 100% | 100% | 80% | Kill in % after 6 days +AMS + RME [1, 9]: 45%; Kill in % after 6 days +AMS [1, 10]: 25%; Kill in % after 6 days +RME [1, 11]: 95%; pest or weed control at 0.8 ppm [1]: 5%
